# Columns and labels:
# Format in all cases: cell-based, human
# A549 cells = assay: 10-14 day Clonagenicity Assay (MTT), A549; settings: for percentage survival relative to the missense, n = 1: independent experiment n = 1, dilution point of maximum toxicity; for percentage survival relative to the missense, n = 2: independent experiment n = 2, dilution point of maximum toxicity; for percentage survival relative to the missense, n = 3: independent experiment n = 3, dilution point of maximum toxicity
# How it was run: (§1)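 Extended-growth viability screen: siRNA transfected at 2 μg/ml into six serially diluted seed densities, quantified by MTT at 10-14 days. Hits needed significant loss versus missense (non-overlapping standard error bars) across two densities; maximum-toxicity point reported as mean % viability.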
# U251 cells = assay: 10-14 day Clonagenicity Assay (MTT), U251; settings: U251, clonagenicity assay, dilution point of maximum toxicity; for percentage survival relative to the missense, n = 1: independent experiment n = 1; for percentage survival relative to the missense, n = 2: independent experiment n = 2; for percentage survival relative to the missense, n = 3: independent experiment n = 3
# Source text: (§2) The Clonagenicity Assay represents a Cell Viability Screen that allows assessment of a cytotoxic insult at a variety of seed densities of cancer cell lines over an extended period of logarithmic growth, such that the definitive effect of the test substance can be accurately quantified. In this instance, the ‘cytotoxic insult’ to be tested involves the transfection of siRNA Oligomers to knockdown the expression of novel target Kinases and GPCRs as outlined previously. Cell number is quantified 10-14 days post siRNA transfection by MTT conversion as described in detail in Example 6.
# (§3) The Clonagenicity Assay is optimised for each cell line examined with respect to seed number. The seed number varies for each cell line and accounts for the differences in cell size, growth rate and sensitivity to transfection-induced toxicity for each cell line pursued. Cells lines given as models for this example include HCT15, MCF7, A549, SKOV3, DU145, U251, PC3, A498 and HeLa. The siRNA oligo to Survivin serves as a positive control for toxicity in this assay and the missense control oligomer acts as a negative control as described in detail in Examples 5 and 6. The c-Raf, BCL2 and PI3K siRNA oligomers serve as additional controls as previously mentioned. The Clonagenicity assay is performed as outlined below.
# (§4) Cells are seeded into a 96-well plate as described below and allowed to adhere overnight at 37° C. in a humidified atmosphere containing 5% CO2 in air. Wells are seeded with an appropriate cell number (cell line dependent) in Column 1 of the 96 well plates and this cell suspension is diluted 1 in 2 across the 96 well plates from Column 1 through to 6 (represented on the x-axis in results). Cells are next transfected with siRNA Oligomers, at a concentration of 2 μg/ml, against the genes of interest. Transfections continue for 4 hrs after which the transfection solution is removed and cells are refed with fresh medium and allow to incubate overnight. An additional media change@24 hrs post transfection is made to minimise toxicity of the transfection reagent. Cells are subsequently incubated for a 10-14 Day period post transfection at a 37° C. incubation as described above. Medium is renewed weekly following which MTT quantification is performed as described in Example 5.
# Note seed density decreases from 3.5 to 0.1×10^3 cells on the x-axis and the y-axis represents cell number as quantified by MTT conversion, 10-14 days post transfection. This decrease is substantially greater that with the apoptosis gene, Survivin. […] Note seed density decreases from 3.5 to 0.1×10^3 cells on the x-axis and the y-axis represents cell number as quantified by MTT conversion, 10-14 days post transfection.
# (§5) To be considered cytotoxic, the siRNA Oligo against the gene target must induce a decreased viability in a cell line across at least 2 seed densities in the clonagenicity assay, such that a significant difference between the target gene and MS is observed i.e. no crossing of the Standard Error bars is detected. The average percentage viability, relative to missense, is recorded for the dilution point at which Maximum Toxicity is induced is recorded in Table 13.
# (§6) Table 13 Clonagenicity Assay—This table gives the average percentage survival of the indicated cell lines relative to the missense in a clonagenicity assay, over 3 independent experiments. As an internal reference, the known survival gene ‘Survivin’, BCL2, c-Raf and PI3KR1 was also targeted by siRNA. When no Cytotoxic response is detected ‘-’ is recorded.
# HCT15 cells = assay: 10-14 day Clonagenicity Assay (MTT), HCT15; settings: for percentage survival relative to the missense, n = 1: independent experiment n = 1, dilution point of maximum toxicity; for percentage survival relative to the missense, n = 2: independent experiment n = 2, dilution point of maximum toxicity
# How it was run: as §1
# DU145 cells = assay: 10-14 day Clonagenicity Assay (MTT), DU145; settings: for percentage survival relative to the missense, n = 2: independent experiment n = 2, dilution point of maximum toxicity; for percentage survival relative to the missense, n = 3: independent experiment n = 3, dilution point of maximum toxicity; for percentage survival relative to the missense, n = 1: independent experiment n = 1, dilution point of maximum toxicity
# Source text: as §2, §3, §4, §5, §6
# PC3 cells = assay: Cell Migration Assay (Chemicon ECM550, Boyden Chamber); settings: 48 hours post siRNA transfection, 24-hour migration, compared to missense and UPA controls
# Method: Cells are seeded into a 6-well plate and allowed to adhere overnight at 37° C. in a humidified atmosphere containing 5% CO2 in air. Cells are next transfected with siRNA oligonucleotides, at a concentration of 2 μg/ml, against the genes of interest, as described in detail in Example 5. Transfections are continued for 4 hrs after which the transfection solution is removed and cells are refed with fresh medium and allowed incubate overnight. Transfected cells are next harvested for seeding into migration assay as described below.
# The Chemicon Cell Migration Assay (ECM550) is used to quantify the number of PC3 cells that successfully migrate across a Boyden Chamber towards a chemoattractant over a 24-hour incubation period. Assessment of PC3 cell migration is performed routinely 48 hours post siRNA Transfection. The effect of reducing the expression of genes of interest is compared to that of a missense control oligomer and to the influence of UPA knockdown, which is reported in the literature to decrease PC3 cell migration. The Migration Assay is performed as per manufacturers inductions. Results are illustrated in FIGS. 39 to 41.
# Cells were plated and transfected with the indicated siRNA as described above. Migration of PC3 cells was tracked using a fluorescent dye. Consequently increases in fluorescent units correlates positively with increased migration.
Substance,"percentage survival relative to the missense, n = 1 (A549 cells) [%]","percentage survival relative to the missense, n = 2 (A549 cells) [%]","percentage survival relative to the missense, n = 3 (A549 cells) [%]","percentage survival relative to the missense, n = 1 (U251 cells) [%]","percentage survival relative to the missense, n = 1 (HCT15 cells) [%]","percentage survival relative to the missense, n = 2 (HCT15 cells) [%]","percentage survival relative to the missense, n = 2 (DU145 cells) [%]",migration of PC3 cells (PC3 cells),"percentage survival relative to the missense, n = 2 (U251 cells) [%]","percentage survival relative to the missense, n = 3 (U251 cells) [%]","percentage survival relative to the missense, n = 3 (DU145 cells) [%]","percentage survival relative to the missense, n = 1 (DU145 cells) [%]"
"siRNA EKI: siRNA duplex, sense GCACUGGAUCCAAAGCAUGtt, antisense CAUGCUUUGGAUCCAGUGCtt; same in Tables 9 and 11 (sense GCACUGGAUCCAAAGCAUGTT; antisense CAUGCUUUGGAUCCAGUGCTT; chemistry not given here)",27.1,30.9,49.1,62.3,63.5,60.6,62.2,–,–,–,–,–
"siRNA FLT4: sense GUACGGCAACCUCUCCAACtt, antisense GUUGGAGAGGUUGCCGUACtt (sense GUACGGCAACCUCUCCAACTT; antisense GUUGGAGAGGUUGCCGUACTT; chemistry not given here)",45.4,–,28.7,–,64.5,48.1,52.7,inhibition of migration,63,30.9,32.6,–
"siRNA MAK: sense GAAGCCAAGCAUGGGUGUUtt, antisense AACACCCAUGCUUGGCUUCtt (sense GAAGCCAAGCAUGGGUGUUTT; antisense AACACCCAUGCUUGGCUUCTT; chemistry not given here)",51.6,–,42.8,11.5,75.9,67.3,57.2,increases the ability of cancer cells to migrate,49.1,58.7,55.4,–
"siRNA MPSK1: sense GGGUUAUGCCCACAGAGACtt, antisense GUCUCUGUGGGCAUAACCCtt (sense GGGUUAUGCCCACAGAGACTT; antisense GUCUCUGUGGGCAUAACCCTT; chemistry not given here)",–,–,–,–,68.3,–,–,inhibition of migration,–,–,–,–
"siRNA NTKL: siRNA duplex, sense UGUGGAGCUGAUGAAGCACtt, antisense GUGCUUCAUCAGCUCCACAtt; same in Tables 9 and 11 (sense UGUGGAGCUGAUGAAGCACTT; antisense GUGCUUCAUCAGCUCCACATT; chemistry not given here)",18.9,45.3,28.1,9.5,59.5,55.3,35.1,–,20.9,17.1,25.4,27.8
"siRNA P14KB: sense GCUACGGAAGCUGAUCCUCtt, antisense GAGGAUCAGCUUCCGUAGCtt (sense GCUACGGAAGCUGAUCCUCTT; antisense GAGGAUCAGCUUCCGUAGCTT; chemistry not given here)",–,–,63.4,12.3,–,–,–,no influence on the migration,65,28.3,26.1,–
"siRNA PCTAIRE: sense GUCAGUGCCCACAAAGACUtt, antisense AGUCUUUGUGGGCACUGACtt (sense GUCAGUGCCCACAAAGACUTT; antisense AGUCUUUGUGGGCACUGACTT; chemistry not given here)",–,–,–,24.2,–,–,–,inhibition of migration,42.7,1.6,–,–
"siRNA PSKH1: sense GAACCUGCACCGCUCCAUAtt, antisense UAUGGAGCGGUGCAGGUUCtt (sense GAACCUGCACCGCUCCAUATT; antisense UAUGGAGCGGUGCAGGUUCTT; chemistry not given here)",51.7,–,–,60.5,28.2,–,–,increases the ability of cancer cells to migrate,–,56.9,–,–
"siRNA ROCK: siRNA duplex, sense UACAUGCCUGGUGGAGAUCtt, antisense GAUCUCCACCAGGCAUGUAtt; same in Tables 9 and 11 (sense UACAUGCCUGGUGGAGAUCTT; antisense GAUCUCCACCAGGCAUGUATT; chemistry not given here)",16.3,28.4,16.8,13.8,61.9,34.6,44.4,–,58.2,19.8,–,45.6
"siRNA Survivin: positive control siRNA, sense GAACUGGCCCUUCUUGGAGtt, antisense CUCCAAGAAGGGCCAGUUCtt (sense GAACUGGCCCUUCUUGGAGTT; antisense CUCCAAGAAGGGCCAGUUCTT; chemistry not given here) [reference compound]",28.5,62.4,67.3,45.9,71.3,44.5,61.8,–,64.6,76.4,91,102

# — patent US20050019746A1, “Apoptosis-related kinase/GPCRs” (EiRx Therapeutics Limited, priority 2003, published 2005)
